These results are taken from publication PMC11773759, “Bioactivity-guided isolation and molecular modeling of the anti-inflammatory constituents from the leaves of Duranta erecta Linn” (BMC Complementary Medicine and Therapies, 2025).

The structures appear in SMILES notation.

The target in one assay is 5-LOX enzyme. Kind of assay: 5-Lipoxygenase (5-LOX) inhibitory assay (colorimetric LOX inhibitor screening kit). The class given is biochemical. The settings on record: isolated compounds. How it is done:
The LOX inhibitor screening assay was carried out colorimetrically, as per the manufacturer’s instructions (Cayman Chemical Company, MI, USA). […] To initiate the enzymatic reaction, introduce 10 µL of 1 mM arachidonic acid and shake the plate for 5 min.
To halt the enzymatic process and promote colour formation, 100 µL of chromogen from the test kit was used. The plate was then shaken for a further 5 min before the absorbance at 490 nm was measured with a microplate reader.

The next assay concerns the target T1, ovine COX-1 (Ovis aries, UniProt P05979).
T1 sequence (P05979 25-600): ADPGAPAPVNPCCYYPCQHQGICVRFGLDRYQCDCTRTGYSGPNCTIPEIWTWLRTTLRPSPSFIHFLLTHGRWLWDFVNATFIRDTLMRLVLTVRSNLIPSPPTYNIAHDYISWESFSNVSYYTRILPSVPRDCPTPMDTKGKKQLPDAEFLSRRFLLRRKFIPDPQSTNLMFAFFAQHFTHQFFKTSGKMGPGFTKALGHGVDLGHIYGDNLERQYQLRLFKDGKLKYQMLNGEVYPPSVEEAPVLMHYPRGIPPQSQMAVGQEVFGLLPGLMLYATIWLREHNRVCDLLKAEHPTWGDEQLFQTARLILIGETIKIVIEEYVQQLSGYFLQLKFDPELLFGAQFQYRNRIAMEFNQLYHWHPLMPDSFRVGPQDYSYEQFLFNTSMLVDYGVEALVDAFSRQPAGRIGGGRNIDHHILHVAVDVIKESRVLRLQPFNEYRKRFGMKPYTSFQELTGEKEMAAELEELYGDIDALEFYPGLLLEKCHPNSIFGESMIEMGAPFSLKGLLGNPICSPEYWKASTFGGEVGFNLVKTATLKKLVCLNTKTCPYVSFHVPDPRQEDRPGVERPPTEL
Kind of assay: COX-1 inhibition assay (colorimetric COX (ovine) inhibitor screening kit).

The test system of a further assay is lipoxygenase. The arrangement: method as in PMID 26134247. To be noted: dose of 0.5 mM; cited from earlier work.
The test system of assay [1] is carrageenan-induced rat paw edema. The arrangement: method as in PMID 12241987. To be noted: cited from earlier work.
In another assay the test system is soybean 5-LOX. The arrangement: method as in doi:10.1007/s00044-016-1677-9. The settings on record: in vitro; cited from earlier work.

Experimental for ovine COX-1: COX-1 and 2 inhibition assay kits (K548-100 and K547-100) were purchased from Biovision Inc., California, USA. […] The absorbances were measured using a Tecan microplate reader (Infinite F50, Switzerland). […] Sigma Chemical Company (CA, USA) supplied the reagents utilized in biological experiments.
To prepare a stock concentration of 5 mg/mL, the extract and its constituent fractions were dissolved in 100% DMSO. In triplicate, samples were serially diluted from 0.1 µg/mL to 100 µg/mL. The inhibitory activity of COX was determined using a colorimetric approach, as previously described [13], and using the Cayman colorimetric COX (ovine) inhibitor screening test kit (Cayman Chemical Company, MI, USA) according to the manufacturer’s instructions. […] After initiating the reaction with 10 µL of 10 mM arachidonic acid, the mixture was incubated at 37 °C for another 2 min. To stop the reaction, 50 µL of 1 N HCl and saturated stannous chloride were added. The assays were run using 100 U of ovine COX-1 and COX-2. […] Results were presented as IC50 (µg/mL) [13].

With `COC(=O)C1=COC(OC2OC(CO)C(O)C(O)C2O)C2C1(O)CC(OC(=O)C=Cc1ccc(OC)c(O)c1)C2(C)O` (stereo not shown) [Compound 1, duranterectoside A], the IC50 against 5-LOX enzyme was 2.6 ± 0.1 µM; against ovine COX-1, 7.3 ± 0.9 µM.
`COC(=O)C1=COC(OC2OC(CO)C(O)C(O)C2O)C2C1(O)CC(O)C2(C)O` (stereo not shown) [Compound 2, lamiide]: the inhibition of lipoxygenase result in the assay with lipoxygenase is “moderate inhibition”. The IC50 against 5-LOX enzyme was 4.9 ± 0.4 µM; against ovine COX-1, 8.5 ± 0.2 µM. Also, the “anti-inflammatory effect in carrageenan-induced rat paw edema” value in assay [1] is “anti-inflammatory properties”. In the assay on soybean 5-LOX, the “suppression of soybean 5-LOX” value was “suppresses”.
